Measurements from PubChem BioAssay AID1053169 (The Scripps Research Institute Molecular Screening Center, 2014).
Calls of active or inactive are those of the source. How the calls were made is not given here.

biological target: Methyl-CpG-binding domain protein 2 (Homo sapiens) (UniProt Q9UBB5); experiment: MBD2-DBD methyl-oligonucleotide interaction blockers – biochemical, TR-FRET, DNA-binding domain, late stage, dose response (AID 1053169); conditions: TR-FRET MBD2-DBD binding to methylated oligonucleotide
Sequence (Q9UBB5 whole entry, looked up, the tested form may be a part): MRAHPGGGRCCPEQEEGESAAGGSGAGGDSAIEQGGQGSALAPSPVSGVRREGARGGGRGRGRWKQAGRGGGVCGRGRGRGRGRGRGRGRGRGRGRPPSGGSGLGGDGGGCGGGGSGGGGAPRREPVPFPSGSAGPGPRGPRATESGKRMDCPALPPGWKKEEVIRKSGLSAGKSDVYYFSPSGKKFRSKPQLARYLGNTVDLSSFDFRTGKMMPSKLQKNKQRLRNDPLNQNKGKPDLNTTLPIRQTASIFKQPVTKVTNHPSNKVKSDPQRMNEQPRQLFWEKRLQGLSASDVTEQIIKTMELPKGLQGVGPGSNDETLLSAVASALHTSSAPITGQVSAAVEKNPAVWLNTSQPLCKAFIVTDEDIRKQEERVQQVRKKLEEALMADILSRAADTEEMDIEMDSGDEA

IC50, inactive:
CCOc1ccc(S(=O)(=O)N2CCCC(C(=O)NCC3CCCO3)C2)cc1Cl (stereo not given) > 43.8 µM
CC(=O)N(c1ccccc1)c1nc(/C=C/C(=O)Nc2c(C)cc(C)cc2C)cs1 > 43.8 µM
O=C(Nc1ccc(OCc2ccccc2)cc1)c1ccccc1 > 43.8 µM
Cc1cc(C)n2nc(CC(=O)NCc3ccc(F)cc3)nc2n1 > 43.8 µM
COc1ccc(NC(=O)COC(=O)CCc2ccc(S(=O)(=O)N3CCOCC3)cc2)cc1Cl > 43.8 µM
CCc1cccc(OCC(=O)Nc2ccc(S(=O)(=O)Nc3ccccn3)cc2)c1 > 43.8 µM
O=C(CSc1nc(-c2ccccc2)c(-c2ccccc2)o1)N1CCOCC1 > 43.8 µM
CC(C)C(=O)Nc1nnc(SCC(=O)NC2CCCC2)s1 > 43.8 µM
O=C(CSc1ccccn1)Nc1ccc(N2CCOCC2)cc1 > 43.8 µM
CC(C)n1nc(C(=O)Nc2nc3ccccc3[nH]2)c2ccccc2c1=O > 43.8 µM
COc1ccccc1C(=O)COC(=O)c1ccc(N(C)C)cc1 > 43.8 µM
CCOC(=O)c1oc2ccc(CNC(C)(C)C)c(Cl)c2c1C > 43.8 µM
CSc1ccc(OC2CCCCC2NS(=O)(=O)c2ccccc2)cc1 (stereo not given) > 43.8 µM
Cc1ccc(Cl)cc1N1CCN(S(=O)(=O)c2ccc3c(c2)NC(=O)C(C)C(=O)N3)CC1 (stereo not given) > 43.8 µM
COc1ccc(NC(=O)CN2CCN(c3ccccc3C)CC2)cc1 > 43.8 µM
CCCCn1c(NC(C)CC)nc2c1c(=O)[nH]c(=O)n2C (stereo not given) > 43.8 µM
CCOC(=O)c1ccc(NC(=O)COc2ccc(CNCCO)cc2OCC)cc1 > 43.8 µM
COc1ccc(NC(=O)Cn2cc(C(C)=O)c3ccccc32)cc1 > 43.8 µM
COc1ccc(C(=O)N2CCC(C(=O)Nc3ccc(C)cc3)CC2)cc1 > 43.8 µM
CSc1ccc(OC2CCCCC2NS(=O)(=O)c2ccc(Cl)cc2)cc1 (stereo not given) > 43.8 µM
